Common to all, as to type: cell-based
In one test the target is T1, human TLR9 (Homo sapiens, UniProt Q9NR96).
T1 construct: host or cells: HEK-Blue cells
T1 sequence (Q9NR96 26-1032): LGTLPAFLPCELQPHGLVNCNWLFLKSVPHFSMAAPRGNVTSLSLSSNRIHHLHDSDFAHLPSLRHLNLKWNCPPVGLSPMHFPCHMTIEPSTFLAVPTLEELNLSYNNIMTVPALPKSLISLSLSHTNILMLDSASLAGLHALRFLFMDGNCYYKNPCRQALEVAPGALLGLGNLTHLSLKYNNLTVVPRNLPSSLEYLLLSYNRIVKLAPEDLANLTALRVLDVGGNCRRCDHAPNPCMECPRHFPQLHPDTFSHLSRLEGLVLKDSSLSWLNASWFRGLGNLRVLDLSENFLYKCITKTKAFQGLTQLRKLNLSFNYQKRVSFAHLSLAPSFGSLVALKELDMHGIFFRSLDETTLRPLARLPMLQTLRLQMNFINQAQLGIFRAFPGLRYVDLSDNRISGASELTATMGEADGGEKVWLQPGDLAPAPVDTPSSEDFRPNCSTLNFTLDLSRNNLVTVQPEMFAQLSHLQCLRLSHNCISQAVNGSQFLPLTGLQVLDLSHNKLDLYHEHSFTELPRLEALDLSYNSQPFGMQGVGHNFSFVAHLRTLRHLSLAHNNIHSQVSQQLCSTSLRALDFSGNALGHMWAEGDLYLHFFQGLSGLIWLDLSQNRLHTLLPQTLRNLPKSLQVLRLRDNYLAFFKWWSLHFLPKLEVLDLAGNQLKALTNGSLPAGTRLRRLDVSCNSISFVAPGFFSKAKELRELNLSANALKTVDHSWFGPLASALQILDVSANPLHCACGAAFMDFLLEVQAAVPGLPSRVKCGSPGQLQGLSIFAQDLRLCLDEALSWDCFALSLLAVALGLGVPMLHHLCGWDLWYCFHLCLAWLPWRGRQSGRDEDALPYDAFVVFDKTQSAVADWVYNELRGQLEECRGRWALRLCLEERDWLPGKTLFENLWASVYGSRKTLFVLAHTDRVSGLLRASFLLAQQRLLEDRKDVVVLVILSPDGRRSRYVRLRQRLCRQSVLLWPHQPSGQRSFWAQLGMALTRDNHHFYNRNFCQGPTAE
Briefly: TLR9 inhibition reporter assay (HEK-Blue SEAP). The conditions noted are these: HEK-Blue cells overexpressing human TLR9, stimulated with ODN2006 5 nM, 22 hour incubation. As for the experimental part:
(§1) TLR7/8/9 Inhibition Reporter Assays
(§2) HEK-Blue™-cells (Invivogen) overexpressing human TLR7, TLR8 or TLR9 receptors were used for screening inhibitors of these receptors using an inducible SEAP (secreted embryonic alkaline phosphatase) reporter gene under the control of the IFN-β minimal promoter fused to five NF-κB and AP-1-binding sites. Briefly, cells are seeded into Greiner 384 well plates (15000 cells per well for TLR7, 20,000 for TLR8 and 25,000 for TLR9) and then treated with test compounds in DMSO to yield a final dose response concentration range of 0.05 nM to 50 μM. After a 30 minute compound pre-treatment at room temperature, the cells are then stimulated with a TLR7 ligand (gardiquimod at a final concentration of 7.5 μM), TLR8 ligand (R848 at a final concentration of 15.9 μM) or TLR9 ligand (ODN2006 at a final concentration of 5 nM) to activate NF-κB and AP-1 which induce the production of SEAP. After a 22 hour incubation at 37° C., 5% CO2, SEAP levels are determined with the addition of HEK-Blue™ Detection reagent (Invivogen), a cell culture medium that allows for detection of SEAP, according to manufacturer's specifications. The percent inhibition is determined as the % reduction in the HEK-Blue signal present in wells treated with agonist plus DMSO alone compared to wells treated with a known inhibitor.
In general terms: In a reporter assay the amount or activity of a reporter protein is the signal.

The target of a further test is T2, human TLR7 (Homo sapiens, UniProt Q9NYK1).
T2 construct: host or cells: HEK-Blue cells
T2 sequence (Q9NYK1 27-1049): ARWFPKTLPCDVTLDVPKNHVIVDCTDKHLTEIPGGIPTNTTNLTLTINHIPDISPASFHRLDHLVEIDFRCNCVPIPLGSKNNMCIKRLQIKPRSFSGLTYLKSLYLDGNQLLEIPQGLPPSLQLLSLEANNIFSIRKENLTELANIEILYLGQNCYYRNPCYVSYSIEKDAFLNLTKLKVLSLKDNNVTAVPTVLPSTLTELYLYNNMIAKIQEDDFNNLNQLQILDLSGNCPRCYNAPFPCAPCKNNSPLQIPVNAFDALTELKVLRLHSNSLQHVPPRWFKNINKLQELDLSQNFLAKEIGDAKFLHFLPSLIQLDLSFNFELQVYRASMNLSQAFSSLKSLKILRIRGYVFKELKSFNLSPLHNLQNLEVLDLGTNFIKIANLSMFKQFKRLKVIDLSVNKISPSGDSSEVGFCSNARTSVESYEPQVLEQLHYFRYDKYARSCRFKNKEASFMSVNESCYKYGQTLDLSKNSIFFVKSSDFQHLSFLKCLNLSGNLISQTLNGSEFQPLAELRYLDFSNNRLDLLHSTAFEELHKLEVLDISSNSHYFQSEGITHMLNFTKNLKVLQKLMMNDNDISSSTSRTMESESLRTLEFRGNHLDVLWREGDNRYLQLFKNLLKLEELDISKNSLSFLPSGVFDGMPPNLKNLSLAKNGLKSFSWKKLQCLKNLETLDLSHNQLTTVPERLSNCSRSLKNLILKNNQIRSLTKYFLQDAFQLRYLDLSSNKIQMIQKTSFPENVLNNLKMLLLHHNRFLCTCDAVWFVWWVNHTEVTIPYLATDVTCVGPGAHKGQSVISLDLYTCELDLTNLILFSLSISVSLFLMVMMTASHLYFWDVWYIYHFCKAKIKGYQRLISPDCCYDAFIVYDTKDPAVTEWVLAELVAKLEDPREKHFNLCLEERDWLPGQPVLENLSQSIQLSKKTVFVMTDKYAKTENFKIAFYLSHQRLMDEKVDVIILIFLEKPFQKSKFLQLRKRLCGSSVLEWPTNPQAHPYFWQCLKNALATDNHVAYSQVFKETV
Nature of the test: TLR7 inhibition reporter assay (HEK-Blue SEAP). The conditions noted are these: HEK-Blue cells overexpressing human TLR7, stimulated with gardiquimod 7.5 μM, 22 hour incubation. As for the experimental part:
as §1, §2

A further test concerns the target T3, human TLR8 (Homo sapiens, UniProt Q9NR97).
T3 construct: host or cells: HEK-Blue cells
T3 sequence (Q9NR97 27-1041): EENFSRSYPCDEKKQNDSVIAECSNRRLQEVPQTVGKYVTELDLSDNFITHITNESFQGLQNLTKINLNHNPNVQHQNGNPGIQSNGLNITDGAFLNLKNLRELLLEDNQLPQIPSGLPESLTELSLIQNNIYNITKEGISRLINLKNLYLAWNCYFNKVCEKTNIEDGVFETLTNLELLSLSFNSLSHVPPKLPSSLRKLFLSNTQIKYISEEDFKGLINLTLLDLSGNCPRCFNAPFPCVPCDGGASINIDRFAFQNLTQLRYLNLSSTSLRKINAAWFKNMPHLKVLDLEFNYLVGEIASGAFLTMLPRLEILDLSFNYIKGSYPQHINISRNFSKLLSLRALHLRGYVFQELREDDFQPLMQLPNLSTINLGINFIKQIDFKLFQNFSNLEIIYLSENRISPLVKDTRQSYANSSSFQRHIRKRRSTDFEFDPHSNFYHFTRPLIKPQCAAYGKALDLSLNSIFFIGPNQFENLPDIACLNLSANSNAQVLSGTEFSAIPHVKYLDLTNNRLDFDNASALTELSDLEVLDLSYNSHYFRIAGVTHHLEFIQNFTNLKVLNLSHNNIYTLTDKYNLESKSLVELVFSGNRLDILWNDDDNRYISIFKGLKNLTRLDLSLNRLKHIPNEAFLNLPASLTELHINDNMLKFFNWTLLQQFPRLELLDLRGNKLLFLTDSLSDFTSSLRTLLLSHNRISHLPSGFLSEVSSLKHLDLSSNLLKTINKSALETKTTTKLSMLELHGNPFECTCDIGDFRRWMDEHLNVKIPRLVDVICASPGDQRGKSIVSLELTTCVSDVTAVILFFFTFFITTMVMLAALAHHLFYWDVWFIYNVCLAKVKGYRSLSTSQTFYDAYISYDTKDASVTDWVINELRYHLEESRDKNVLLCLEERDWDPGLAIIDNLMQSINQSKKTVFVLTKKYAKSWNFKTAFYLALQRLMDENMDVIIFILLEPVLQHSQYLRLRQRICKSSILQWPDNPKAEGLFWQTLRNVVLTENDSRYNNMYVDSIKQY
Nature of the test: TLR8 inhibition reporter assay (HEK-Blue SEAP). Particulars: HEK-Blue cells overexpressing human TLR8, stimulated with R848 15.9 μM, 22 hour incubation. As for the experimental part: as §1, §2

Each structure is given as a SMILES string.

Turning to `Cc1cc2c(C3CC(N(C)C)C3)n[nH]c2cc1-c1cc(C)c2ncnn2c1` (single isomer, unassigned) [Example 6, N,N-dimethyl-3-(5-methyl-6-(8-methyl-[1,2,4]triazolo[1,5-a]pyridin-6-yl)-1H-indazol-3-yl)cyclobutan-1-amine], the half-maximal inhibitory concentration (IC50) – broadly, the concentration at which inhibition is half-maximal – is 3210 nM on human TLR9, 9.3 nM on human TLR7 and 0.3 nM at human TLR8.
`Cc1cc2c(C3CC(N(C)C)C3)n[nH]c2cc1-c1cc(C)c2ncnn2c1` (single isomer, unassigned) [Example 7, N,N-dimethyl-3-(5-methyl-6-(8-methyl-[1,2,4]triazolo[1,5-a]pyridin-6-yl)-1H-indazol-3-yl)cyclobutan-1-amine]: the 50% inhibitory concentration (IC50) on human TLR9 was 4480 nM; against human TLR7, 21.6 nM; at human TLR8, 1.3 nM.
For `Cc1cc(-c2ccc3c(C4CCC(N(C)C)CC4)c[nH]c3c2)cn2ncnc12` (single isomer, unassigned) [Example 14, N,N-dimethyl-4-(6-(8-methyl-[1,2,4]triazolo[1,5-a]pyridin-6-yl)-1H-indol-3-yl)cyclohexan-1-amine], in that order: 3430 nM, 80.6 nM and 115 nM.
Regarding `Cc1cc(-c2ccc3c(C4CCC(N(C)C)CC4)c[nH]c3c2)cn2ncnc12` (single isomer, unassigned) [Example 15, N,N-dimethyl-4-(6-(8-methyl-[1,2,4]triazolo[1,5-a]pyridin-6-yl)-1H-indol-3-yl) cyclohexan-1-amine], the figures for the 50% inhibitory concentration (IC50) at human TLR9, against human TLR7 and against human TLR8 were 1130 nM, 29.4 nM and 25.9 nM, respectively.
The matching figures for `Cc1cc2c(C3CCC(NCC(=O)N(C)C)CC3)n[nH]c2cc1-c1cc(C)c2ncnn2c1` (single isomer, unassigned) [Example 28, N,N-dimethyl-2-((4-(5-methyl-6-(8-methyl-[1,2,4]triazolo[1,5-a]pyridin-6-yl)-1H-indazol-3-yl)cyclohexyl)amino)acetamide]: 4410 nM, 12.4 nM and 0.4 nM.
As to `Cc1cc2c(C3CCC(NCC(=O)N(C)C)CC3)n[nH]c2cc1-c1cc(C)c2ncnn2c1` (single isomer, unassigned) [Example 29, N,N-dimethyl-2-((4-(5-methyl-6-(8-methyl-[1,2,4]triazolo[1,5-a]pyridin-6-yl)-1H-indazol-3-yl)cyclohexyl)amino)acetamide], the results for the half-inhibitory concentration (IC50) on human TLR9, against human TLR7 and against human TLR8 were 6340 nM, 39 nM and 0.9 nM, respectively.
The matching figures for `Cc1cc2c(C3CCC(N(C)C4COC4)CC3)n[nH]c2cc1-c1cc(C)c2ncnn2c1` (single isomer, unassigned) [Example 32, N-methyl-N-(4-(5-methyl-6-(8-methyl-[1,2,4]triazolo[1,5-a]pyridin-6-yl)-1H-indazol-3-yl)cyclohexyl)oxetan-3-amine]: 4440 nM, 18.3 nM and 0.3 nM.
On to `Cc1cc2c(C3CCC(N(C)C4COC4)CC3)n[nH]c2cc1-c1cc(C)c2ncnn2c1` (single isomer, unassigned) [Example 33, N-methyl-N-(4-(5-methyl-6-(8-methyl-[1,2,4]triazolo[1,5-a]pyridin-6-yl)-1H-indazol-3-yl)cyclohexyl)oxetan-3-amine], for which the IC50 at human TLR9 was 9010 nM; against human TLR7 it was 96.7 nM; on human TLR8, 3 nM.
For `Cc1cc2c(C3CCC(NC4COC4)CC3)n[nH]c2cc1-c1cc(C)c2ncnn2c1` (single isomer, unassigned) [Example 34, N-(4-(5-methyl-6-(8-methyl-[1,2,4]triazolo[1,5-a]pyridin-6-yl)-1H-indazol-3-yl)cyclohexyl)oxetan-3-amine], in that order: 3950 nM, 8.1 nM and 0.2 nM.
`Cc1cc2c(C3CCC(NC4COC4)CC3)n[nH]c2cc1-c1cc(C)c2ncnn2c1` (single isomer, unassigned) [Example 35, N-(4-(5-methyl-6-(8-methyl-[1,2,4]triazolo[1,5-a]pyridin-6-yl)-1H-indazol-3-yl)cyclohexyl)oxetan-3-amine]: the IC50 at human TLR9 amounted to 3100 nM; against human TLR7, 29.7 nM; at human TLR8, 0.8 nM.

The values above are taken from patent US12172995B2, “Substituted indole and indazole compounds” (BRISTOL-MYERS SQUIBB COMPANY, priority 2018, dated 2024).
